One assay concerns Streptococcus pyogenes. As to the kind of experiment: In vitro minimum inhibitory concentration (MIC), two-fold serial dilution in Brain-Heart Infusion broth. In kind it is cell-based. The following applies: read-out: MIC vs. Strep. pyogenes. The procedure:
The antibacterial penam compounds, 6, show activity against a wide variety of gram-positive and gram-negative bacteria. […] The broth is inoculated with the bacterial culture, and with the test antibiotic, and then it is incubated overnight. On the next day, the test is read visually. The minimum inhibitory concentration (MIC) is the lowest concentration of antibiotic which prevents turbidity, i.e., which prevents growth of the microorganism. In vitro activities of several of the penam compounds of the invention are presented later in this specification.
In vitro antibacterial activities for a number of compounds prepared by the procedure of Example 4 are presented below.
In Table II, the minimum inhibitory concentrations (MIC's) of numerous compounds against a strain of Streptococcus pyogenes, are reported.

In another assay the test system is Escherichia coli. As to the kind of experiment: In vivo protection of mice against systemic infection by lethal intraperitoneal inoculum of Escherichia coli. On the set-up: species or system infected mice; Escherichia coli. Particulars: multiple dosing. The procedure: (§1) These antibacterial penam compounds are also active in vivo. In determining such activity, the test antibiotic is administered to infected mice, using a multiple dosing regimen. The severity of the infection varies from about one to about ten times the dose needed to kill 100% of the mice under the conditions of the test. At the end of the test, the activity of a compound is assessed by counting the number of survivors among the treated animals. Both the subcutaneous (SC) and oral (PO) dosage routes are used. Results are given in Table I for two compounds produced from the novel intermediate of the invention. The ability of the compounds to protect mice against systemic infections caused by a lethal intraperitoneal inoculum of Staphylococcus aureus or of Escherichia coli is presented.

For the next assay, the system named is Staphylococcus aureus. The assay is described as follows: In vivo protection of mice against systemic infection by lethal intraperitoneal inoculum of Staphylococcus aureus. Further details: species or system infected mice; Staphylococcus aureus. Particulars: SC, multiple dosing. The method, then:
as §1

[1] abbreviates: two-fold serial dilution, Brain-Heart Infusion broth, overnight incubation.

In general, MIC refers to the least concentration at which growth counts as inhibited.

Converted amounts (≈) assume the structure as drawn. Like-named read-outs stand apart in the source and are kept apart here.

For `CC1(C)SC2C(NC(=O)C(N=[N+]=[N-])c3ccccc3)C(=O)N2C1c1nn[nH]n1` (stereo not drawn) [2-azido-2-phenylacetyl], the minimum inhibitory concentration (MIC) with Streptococcus pyogenes (setting [1]) was less than 0.1 µg/mL.

Consider `CC1(C)SC2C(NC(=O)[C@H](N)c3ccc(O)c(Cl)c3)C(=O)N2C1c1nn[nH]n1` (stereo partly drawn), for which, in the assay with Streptococcus pyogenes (setting [1]), the minimum inhibitory concentration (MIC) stood at 0.1 µg/mL (≈ 0.236 µM).

As to `CC1(C)SC2C(NC(=O)[C@H](N)c3cccs3)C(=O)N2C1c1nn[nH]n1` (stereo partly drawn) [D-2-amino-2-(2-thienyl)acetyl], the MIC in the assay with Streptococcus pyogenes (setting [1]) worked out at 0.1 µg/mL (≈ 0.264 µM).

Take `CC1(C)S[C@@H]2C(NC(=O)[C@H](N)c3ccsc3)C(=O)N2C1c1nnn[nH]1` (stereo partly drawn) [6-(D-2-amino-2-[3-thienyl]acetamido)-2,2-dimethyl-3-(5-tetrazolyl)penam]: the “Percentage Protection E. coli” value in the assay on Escherichia coli (25 mg./kg., SC) was 20 Percentage; with Escherichia coli (50 mg./kg., SC), 20 Percentage; with Escherichia coli (200 mg./kg., PO), 0 Percentage. The “Percentage Protection S. aureus” value in the assay with Staphylococcus aureus (6 mg./kg.) stood at 50 Percentage; with Staphylococcus aureus (12 mg./kg.) it was 50 Percentage; in the assay with Staphylococcus aureus (25 mg./kg.), 60 Percentage; in the assay with Staphylococcus aureus (50 mg./kg.), 40 Percentage.

On to `CC1(C)SC2C(NC(=O)[C@H](N)c3ccccc3)C(=O)N2C1c1nn[nH]n1` (stereo partly drawn) [D-2-amino-2-phenylacetyl], for which the MIC in the assay on Streptococcus pyogenes (setting [1]) was less than 0.1 µg/mL.

For `CC(C)[C@@H](N)C(=O)NC1C(=O)N2C1SC(C)(C)C2c1nn[nH]n1` (stereo partly drawn) [D-2-amino-3-methylbutyryl], the minimum inhibitory concentration (MIC) with Streptococcus pyogenes (setting [1]) amounted to 0.2 µg/mL (≈ 0.589 µM).

Regarding `CC1(C)SC2C(NC(=O)[C@@H](N)c3ccc(O)cc3)C(=O)N2C1c1nn[nH]n1` (stereo partly drawn) [L-2-amino-2-(p-hydroxyphenyl)acetyl], the minimal inhibitory concentration (MIC) in the assay on Streptococcus pyogenes (setting [1]) was less than 0.1 µg/mL.

Consider `Cc1onc(-c2ccccc2Cl)c1C(=O)NC1C(=O)N2C1SC(C)(C)C2c1nn[nH]n1` (stereo not drawn), for which the MIC in the assay on Streptococcus pyogenes (setting [1]) was less than 0.1 µg/mL.

Consider `CC1(C)SC2C(NC(=O)C(N)c3cc(O)ccc3Br)C(=O)N2C1c1nn[nH]n1` (racemic), for which the MIC with Streptococcus pyogenes (setting [1]) is less than 0.1 µg/mL.

Take `CC1(C)SC2C(NC(=O)CSc3ccncc3)C(=O)N2C1c1nn[nH]n1` (stereo not drawn) [2-(4-pyridylthio)acetyl]: the MIC in the assay with Streptococcus pyogenes was less than 0.1 µg/mL.

As for `CC1(C)SC2C(NC(=O)C(N)c3ccc(Cl)cc3)C(=O)N2C1c1nn[nH]n1` (racemic) [DL-2-amino-2-(p-chlorophenyl)acetyl], in the assay with Streptococcus pyogenes (setting [1]), the minimum inhibitory concentration (MIC) was less than 0.1 µg/mL.

For `CC1(C)SC2C(NC(=O)[C@H](N)c3cccc(F)c3)C(=O)N2C1c1nn[nH]n1` (stereo partly drawn) [D-2-amino-2-(m-fluorophenyl)acetyl], in the assay with Streptococcus pyogenes (setting [1]), the MIC was less than 0.1 µg/mL.

Regarding `CCOC(=O)NC1C(=O)N2C1SC(C)(C)C2c1nn[nH]n1` (stereo not drawn) [ethoxycarbonyl], in the assay with Streptococcus pyogenes (setting [1]), the minimum inhibitory concentration (MIC) is less than 0.1 µg/mL.

With `CC1(C)SC2C(NC(=O)C3(N)CCCCC3)C(=O)N2C1c1nn[nH]n1` (stereo not drawn) [1-aminocyclohexylcarbonyl], in the assay with Streptococcus pyogenes (setting [1]), the minimal inhibitory concentration (MIC) came out at 25 µg/mL (≈ 68.4 µM).

As to `CC1(C)SC2C(NC(=O)OCc3ccccc3)C(=O)N2C1c1nn[nH]n1` (stereo not drawn) [benzyloxycarbonyl], the minimal inhibitory concentration (MIC) with Streptococcus pyogenes (setting [1]) was less than 0.1 µg/mL.

For `CC1(C)SC2C(NC(=O)Cn3cnnn3)C(=O)N2C1c1nn[nH]n1` (stereo not drawn) [2-(1-tetrazolyl)acetyl], the MIC with Streptococcus pyogenes (setting [1]) is less than 0.39 µg/mL.

Regarding `CC1(C)S[C@@H]2C(NC(=O)Cc3ccccc3)C(=O)N2C1c1nnn[nH]1` (stereo partly drawn) [2-phenylacetyl, 6-(2-phenylacetamido)-2,2-dimethyl-3-(5-tetrazolyl)penam], the minimum inhibitory concentration (MIC) in the assay with Streptococcus pyogenes (setting [1]) was less than 0.1 µg/mL.

For the compound `CC1(C)SC2C(NC(=O)C=CC(N)=O)C(=O)N2C1c1nn[nH]n1` (stereo not drawn) [3-(carbamoyl)acryloyl], the minimal inhibitory concentration (MIC) with Streptococcus pyogenes (setting [1]) is less than 0.1 µg/mL.

Turning to `CC1(C)S[C@@H]2C(NC(=O)[C@H](N)c3ccc(O)cc3)C(=O)N2C1c1nnn[nH]1` (stereo partly drawn) [6-(D-2-amino-2-[p-hydroxyphenyl]acetamido)-2,2-dimethyl-3-(5-tetrazolyl)penam], the “Percentage Protection E. coli” value amounted to 80 Percentage in the assay on Escherichia coli (25 mg./kg., SC); 100 Percentage in the assay on Escherichia coli (50 mg./kg., SC); 100 Percentage with Escherichia coli (200 mg./kg., PO). Besides, the MIC in the assay on Streptococcus pyogenes (setting [1]) was less than 0.1 µg/mL. In addition, the “Percentage Protection S. aureus” value in the assay on Staphylococcus aureus (6 mg./kg.) worked out at 50 Percentage; in the assay on Staphylococcus aureus (12 mg./kg.), 50 Percentage; with Staphylococcus aureus (25 mg./kg.) it was 70 Percentage; in the assay on Staphylococcus aureus (50 mg./kg.), 80 Percentage.

As for `CC1(C)SC2C(NC(=O)CC#N)C(=O)N2C1c1nn[nH]n1` (stereo not drawn) [2-cyanoacetyl], in the assay with Streptococcus pyogenes (setting [1]), the MIC was found to be 0.1 µg/mL (≈ 0.325 µM).

`CC1(C)SC2C(NC(=O)C(N)c3cccc(Cl)c3)C(=O)N2C1c1nn[nH]n1` (racemic) [DL-2-amino-2-(m-chlorophenyl)acetyl]: the MIC in the assay with Streptococcus pyogenes (setting [1]) amounted to 0.78 µg/mL (≈ 1.91 µM).

Take `CC1(C)SC2C(NC(=O)[C@H](N)Cc3ccccc3)C(=O)N2C1c1nn[nH]n1` (stereo partly drawn) [D-2-amino-3-phenylpropionyl]: the MIC in the assay with Streptococcus pyogenes (setting [1]) is 0.39 µg/mL (≈ 1.01 µM).

In the case of `CC(=O)NC1C(=O)N2C1SC(C)(C)C2c1nn[nH]n1` (stereo not drawn) [acetyl], in the assay with Streptococcus pyogenes (setting [1]), the minimum inhibitory concentration (MIC) was less than 0.1 µg/mL.

In the case of `CCN=C(NCC)SCC(=O)NC1C(=O)N2C1SC(C)(C)C2c1nn[nH]n1` (stereo not drawn) [2-(N,N'-diethylamidinothio)acetyl], the minimum inhibitory concentration (MIC) in the assay on Streptococcus pyogenes (setting [1]) was less than 0.1 µg/mL.

Regarding `CC1(C)SC2C(NC(=O)CBr)C(=O)N2C1c1nn[nH]n1` (stereo not drawn) [2-bromoacetyl], the MIC with Streptococcus pyogenes (setting [1]) is less than 0.1 µg/mL.

Consider `CN(C)c1ccc(C(N)C(=O)NC2C(=O)N3C2SC(C)(C)C3c2nn[nH]n2)cc1` (racemic), for which, in the assay on Streptococcus pyogenes (setting [1]), the minimum inhibitory concentration (MIC) stood at 0.39 µg/mL (≈ 0.936 µM).

As for `CC1(C)SC2C(NC(=O)[C@H](N)c3cccc(O)c3)C(=O)N2C1c1nn[nH]n1` (stereo partly drawn) [D-2-amino-2-(m-hydroxyphenyl)acetyl], the MIC in the assay with Streptococcus pyogenes (setting [1]) is less than 0.1 µg/mL.

Regarding `CC1(C)SC2C(NC(=O)COc3ccccc3)C(=O)N2C1c1nn[nH]n1` (stereo not drawn) [2-phenoxyacetyl], the MIC in the assay with Streptococcus pyogenes (setting [1]) was less than 0.1 µg/mL.

For the compound `CC1(C)SC2C(NC(=O)C(N)c3ccc(O)c(O)c3)C(=O)N2C1c1nn[nH]n1` (racemic) [DL-2-amino-2-(3,4-dihydroxyphenyl)acetyl], in the assay with Streptococcus pyogenes (setting [1]), the MIC is less than 0.1 µg/mL.

In the case of `CC1(C)SC2C(NC(=O)Oc3ccccc3)C(=O)N2C1c1nn[nH]n1` (stereo not drawn) [phenoxycarbonyl], in the assay with Streptococcus pyogenes, the MIC is less than 0.1 µg/mL.

Take `CC1(C)S[C@@H]2C(N)C(=O)N2C1c1nnn[nH]1` (stereo partly drawn) [hydrogen, 6-Amino-2,2-dimethyl-3-(5-tetrazolyl)penam]: in the assay on Streptococcus pyogenes (setting [1]), the minimal inhibitory concentration (MIC) is less than 0.1 µg/mL.

As to `COc1cccc(OC)c1C(=O)NC1C(=O)N2C1SC(C)(C)C2c1nn[nH]n1` (stereo not drawn) [2,6-dimethoxybenzoyl], in the assay on Streptococcus pyogenes (setting [1]), the minimum inhibitory concentration (MIC) is less than 0.2 µg/mL.

Values taken from US3950350A, “Penam-dimethylsulfoxide complex” (Pfizer Inc., priority 1974, dated 1976).
